These results are taken from US12662491B2 (Redona Therapeutics, Inc., priority 2020, dated 2026).

One may read the IC50 as the concentration needed to halve the response being measured.

Where only a bound is given, the exact number is not on record here.

The target of the assay is T1, Zcchc11 enzyme (Homo sapiens, UniProt Q5TAX3).
T1 construct: made in house; host or cells: HEK293 cells (Zcchc11); E. coli Rosetta II (LIN28A)
T1 sequence (Q5TAX3 212-1420): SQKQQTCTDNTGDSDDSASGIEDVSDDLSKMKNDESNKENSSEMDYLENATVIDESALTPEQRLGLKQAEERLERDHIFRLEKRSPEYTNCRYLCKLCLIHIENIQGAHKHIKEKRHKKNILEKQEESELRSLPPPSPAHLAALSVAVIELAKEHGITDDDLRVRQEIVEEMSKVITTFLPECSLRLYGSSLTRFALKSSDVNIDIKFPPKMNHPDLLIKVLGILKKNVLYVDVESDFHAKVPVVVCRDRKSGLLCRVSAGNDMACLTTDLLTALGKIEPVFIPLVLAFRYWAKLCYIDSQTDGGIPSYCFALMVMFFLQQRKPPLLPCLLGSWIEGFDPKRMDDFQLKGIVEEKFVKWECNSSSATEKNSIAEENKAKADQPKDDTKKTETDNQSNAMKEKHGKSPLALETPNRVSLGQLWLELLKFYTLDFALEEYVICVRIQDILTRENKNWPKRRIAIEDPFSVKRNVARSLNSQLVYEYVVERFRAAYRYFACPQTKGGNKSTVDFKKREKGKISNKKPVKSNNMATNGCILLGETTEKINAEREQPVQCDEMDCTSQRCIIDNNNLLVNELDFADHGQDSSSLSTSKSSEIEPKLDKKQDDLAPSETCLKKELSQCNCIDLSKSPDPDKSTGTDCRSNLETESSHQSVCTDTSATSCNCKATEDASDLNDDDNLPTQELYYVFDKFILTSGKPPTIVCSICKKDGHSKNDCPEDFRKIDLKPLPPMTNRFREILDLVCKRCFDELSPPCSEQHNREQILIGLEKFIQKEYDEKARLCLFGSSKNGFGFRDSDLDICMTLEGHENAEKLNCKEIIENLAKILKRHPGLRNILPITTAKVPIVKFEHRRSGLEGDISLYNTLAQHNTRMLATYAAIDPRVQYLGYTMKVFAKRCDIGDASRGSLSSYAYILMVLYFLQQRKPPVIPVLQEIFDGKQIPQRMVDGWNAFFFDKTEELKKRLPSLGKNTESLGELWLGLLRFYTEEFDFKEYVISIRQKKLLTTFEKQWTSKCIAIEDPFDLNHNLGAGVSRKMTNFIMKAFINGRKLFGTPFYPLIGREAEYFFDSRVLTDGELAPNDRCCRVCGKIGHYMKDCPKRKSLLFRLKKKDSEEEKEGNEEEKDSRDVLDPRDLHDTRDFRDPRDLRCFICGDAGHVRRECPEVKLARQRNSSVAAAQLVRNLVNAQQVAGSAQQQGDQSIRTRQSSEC
In words: TUTase assay (Zcchc11 assay, Lin28a-dependent polyuridylation of pre-let-7). The format is biochemical. Particulars: Lin28a-dependent Zcchc11 (Z11) TUTase assay; read-out: Potency Lin28a-dep Z11 IC50. Put shortly: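 Polyuridylation measured as fluorescein loss when a rhodamine-labelled A20 probe anneals to U-tails added to fluorescein pre-let-7 (2 nM). Reaction: truncated Zcchc11 0.2 nM, E. coli-made LIN28A 10 nM, UTP 5 uM, HEPES pH 7.3, room temperature. Initial rates fitted to four-parameter IC50.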
For `N#Cc1cc2c(=O)c(C(=O)O)cn(-c3cnn(CCN4CCC4)c3)c2cc1N1CCC[C@@H]1COc1ncccc1Cl` [Example 571, (R)-1-(1-(2-(azetidin-1-yl)ethyl)-1H-pyrazol-4-yl)-7-(2-(((3-chloropyridin-2-yl)oxy)methyl)pyrrolidin-1-yl)-6-cyano-4-oxo-1,4-dihydroquinoline-3-carboxylic acid], the IC50 is not above 1000 nM.
As for `CN(C)C1CN(c2ccc(-n3cc(C(=O)O)c(=O)c4cc(C#N)c(N5C[C@@H](F)C[C@@H]5COc5ncccc5Cl)cc43)cn2)C1` [Example 572, 7-((2R,4S)-2-(((3-chloropyridin-2-yl)oxy)methyl)-4-fluoropyrrolidin-1-yl)-6-cyano-1-(6-(3-(dimethylamino)azetidin-1-yl)pyridin-3-yl)-4-oxo-1,4-dihydroquinoline-3-carboxylic acid], the figure is not above 1000 nM; as for `Cn1cc(Cn2cc(C(=O)O)c(=O)c3cc(Cl)c(N4CCC[C@@H]4COc4ncccc4Cl)cc32)cn1` [Example 573, (R)-6-chloro-7-(2-(((3-chloropyridin-2-yl)oxy)methyl)pyrrolidin-1-yl)-1-((1-methyl-1H-pyrazol-4-yl)methyl)-4-oxo-1,4-dihydroquinoline-3-carboxylic acid], not above 1000 nM.
With `NC(=O)Cn1cc(C(=O)O)c(=O)c2cc(F)c(N3CCC[C@@H]3COc3ccccn3)cc21` [Example 574, (R)-1-(2-amino-2-oxoethyl)-6-fluoro-4-oxo-7-(2-((pyridin-2-yloxy)methyl)pyrrolidin-1-yl)-1,4-dihydroquinoline-3-carboxylic acid], the IC50 was in the range of 1000 to 10000 nM.
Regarding `CC(C)(O)c1ccc(-n2cc(C(=O)O)c(=O)c3cc(C#N)c(N4CCC[C@@H]4COc4ncccc4Cl)cc32)cn1` [Example 575, (R)-7-(2-(((3-chloropyridin-2-yl)oxy)methyl)pyrrolidin-1-yl)-6-cyano-1-(6-(2-hydroxypropan-2-yl)pyridin-3-yl)-4-oxo-1,4-dihydroquinoline-3-carboxylic acid], the IC50 was not above 1000 nM.
Under `O=C(O)c1cn(Cc2ccccn2)c2cc(N3CCC[C@@H]3COc3ncccc3Cl)c(Cl)cc2c1=O` [Example 576, (R)-6-chloro-7-(2-(((3-chloropyridin-2-yl)oxy)methyl)pyrrolidin-1-yl)-4-oxo-1-(pyridin-2-ylmethyl)-1,4-dihydroquinoline-3-carboxylic acid] stands not above 1000 nM; under `O=C(O)c1cn(Cc2ccncc2)c2cc(N3CCC[C@@H]3COc3ncccc3Cl)c(Cl)cc2c1=O` [Example 577, (R)-6-chloro-7-(2-(((3-chloropyridin-2-yl)oxy)methyl)pyrrolidin-1-yl)-4-oxo-1-(pyridin-4-ylmethyl)-1,4-dihydroquinoline-3-carboxylic acid], 1000 to 10000 nM.
Regarding `CN(C)C1CN(c2ccc(-n3cc(C(=O)O)c(=O)c4cc(Cl)c(N5CCC[C@@H]5CCc5ccccn5)cc43)cn2)C1` [Example 578, (R)-6-chloro-1-(6-(3-(dimethylamino)azetidin-1-yl)pyridin-3-yl)-4-oxo-7-(2-(2-(pyridin-2-yl)ethyl)pyrrolidin-1-yl)-1,4-dihydroquinoline-3-carboxylic acid], the IC50 is 1000 to 10000 nM.
Regarding `CN(C)C1CN(c2ccc(-n3cc(C(=O)O)c(=O)c4cc(Cl)c(N5CCC[C@@H]5COc5ccnn5C)cc43)cn2)C1` [Example 580, (R)-6-chloro-1-(6-(3-(dimethylamino)azetidin-1-yl)pyridin-3-yl)-7-(2-(((1-methyl-1H-pyrazol-5-yl)oxy)methyl)pyrrolidin-1-yl)-4-oxo-1,4-dihydroquinoline-3-carboxylic acid], the half-maximal inhibitory concentration (IC50) was not above 1000 nM.
For `O=C(O)c1cn(Cc2cn[nH]c2)c2cc(N3CCC[C@@H]3COc3ncccc3Cl)c(Cl)cc2c1=O` [Example 581, (R)-1-((1H-pyrazol-4-yl)methyl)-6-chloro-7-(2-(((3-chloropyridin-2-yl)oxy)methyl)pyrrolidin-1-yl)-4-oxo-1,4-dihydroquinoline-3-carboxylic acid], the IC50 was in the range of 1000 to 10000 nM.
Take `CN(C)CCn1cc(Cn2cc(C(=O)O)c(=O)c3cc(Cl)c(N4CCC[C@@H]4COc4ncccc4Cl)cc32)cn1` [Example 582, (R)-6-chloro-7-(2-(((3-chloropyridin-2-yl)oxy)methyl)pyrrolidin-1-yl)-1-((1-(2-(dimethylamino)ethyl)-1H-pyrazol-4-yl)methyl)-4-oxo-1,4-dihydroquinoline-3-carboxylic acid]: the IC50 was in the range of 1000 to 10000 nM.
As for `CC(c1ccccc1)n1cc(C(=O)O)c(=O)c2cc(Cl)c(N3CCC[C@@H]3COc3ncccc3Cl)cc21` (stereo partly drawn) [Example 583, 6-chloro-7-((R)-2-(((3-chloropyridin-2-yl)oxy)methyl)pyrrolidin-1-yl)-4-oxo-1-(1-phentylethyl)-1,4-dihydroquinoline-3-carboxylic acid], the figure is 1000 to 10000 nM.
Under `Cc1nc(N2CC(N(C)C)C2)ccc1-n1cc(C(=O)O)c(=O)c2cc(Cl)c(N3CCC[C@@H]3COc3ncccc3Cl)cc21` [Example 584, (R)-6-chloro-7-(2-(((3-chloropyridin-2-yl)oxy)methyl)pyrrolidin-1-yl)-1-(6-(3-(dimethylamino)azetidin-1-yl)-2-methylpyridin-3-yl)-4-oxo-1,4-dihydroquinoline-3-carboxylic acid] stands not above 1000 nM.
As for `Nc1ccc(Cn2cc(C(=O)O)c(=O)c3cc(Cl)c(N4CCC[C@@H]4COc4ncccc4Cl)cc32)cn1` [Example 585, (R)-1-((6-aminopyridin-3-yl)methyl)-6-chloro-7-(2-(((3-chloropyridin-2-yl)oxy)methyl)pyrrolidin-1-yl)-4-oxo-1,4-dihydroquinoline-3-carboxylic acid], the figure is 1000 to 10000 nM; as for `Nc1cc(F)c(-n2cc(C(=O)O)c(=O)c3cc(Cl)c(N4CCC[C@@H]4COc4ncccc4Cl)cc32)cn1` [Example 586, (R)-1-(6-amino-4-fluoropyridin-3-yl)-6-chloro-7-(2-(((3-chloropyridin-2-yl)oxy)methyl)pyrrolidin-1-yl)-4-oxo-1,4-dihydroquinoline-3-carboxylic acid], not above 1000 nM.
As to `CN(C)C1CN(c2ccc(-n3cc(C(=O)O)c(=O)c4cc(Cl)c(N5CCC[C@@H]5COc5ncco5)cc43)cn2)C1` [Example 587, (R)-6-chloro-1-(6-(3-(dimethylamino)azetidin-1-yl)pyridin-3-yl)-7-(2-((oxazol-2-yloxy)methyl)pyrrolidin-1-yl)-4-oxo-1,4-dihydroquinoline-3-carboxylic acid], the IC50 was not above 1000 nM.
Consider `O=C(O)c1cn(C2(c3ccccc3)CC2)c2cc(N3CCC[C@@H]3COc3ncccc3Cl)c(Cl)cc2c1=O` [Example 588, (R)-6-chloro-7-(2-(((3-chloropyridin-2-yl)oxy)methyl)pyrrolidin-1-yl)-4-oxo-1-(1-phenylcyclo-propyl)-1,4-dihydroquinoline-3-carboxylic acid], for which the IC50 was in the range of 1000 to 10000 nM.
As for `Nc1cc(Cn2cc(C(=O)O)c(=O)c3cc(Cl)c(N4CCC[C@@H]4COc4ncccc4Cl)cc32)ccn1` [Example 589, (R)-1-((2-aminopyridin-4-yl)methyl)-6-chloro-7-(2-(((3-chloropyridin-2-yl)oxy)methyl)pyrrolidin-1-yl)-4-oxo-1,4-dihydroquinoline-3-carboxylic acid], the figure is 1000 to 10000 nM.
